Measurements taken from US20060069040A1, “GHB compositions” (priority 2004, published 2006).
Where two headings read alike, the source gives them in different places.

Tests used:
CD-1 male mice [1] = test: Passivity test (sleep induction and sleep time); assay type: in vivo; conditions: for Effect on GHB sleep time: Example 6: 7.93 mmol/kg of named agent mixed in solution with GHB 7.93 mmol/kg, oral gavage, 8 mice; for Effect on GHB induced sleep time: 800 mg/kg i.p. of named compound followed immediately by GHB 800 mg/kg i.p.
Description: (§1) CD-1 male mice (30-40 g) were housed 3 to 4 per cage in the animal care facility on a 12 hour light dark cycle with free access to water and food for at least 1 week before testing.
The passivity test developed by Irwing was used to determine sleep time. After GHB administration, the mice were placed in an unusual position and a score of 2, 4, 6, or 8 was given when the mice ceased to struggle against respectively being suspended vertically, rotated horizontally onto their backs, suspended by their hind limbs or suspended by their forelimbs. Scores on the passivity test were determined every 10 minutes after GHB administration. […] The time between scores of 8 and 2 was defined as the total sleep time.
(§2) Statistical significance between control and treated groups at each time point in the present study was determined by student's t-test. Note that values of motor activity were expressed as a percentage of the baseline value which was normalized to 100%.
The optimal dose of GHB for inducing sleep was determined with the passivity test. GHB was dissolved in 0.9% NaCl and 1% Tween 80 and delivered intraperitoneally (i.p.) to 4 groups of 6 mice that had not been fasting. Each group received either 200 mg/kg, 400 mg/kg, 600 mg/kg and 800 mg/kg. […] For this reason, this dose was used in the initial exploratory studies.

[2] = previous work (ref. 7); rats, tracer doses of GHB, intravenous infusion; cited from earlier work
CD-1 male mice [3] = assay type: in vivo; conditions: for Effect on GHB induced motor inhibition: Example 3: named compound 800 mg/kg i.p. 2 or 15 minutes before GHB 800 mg/kg i.p., mice not fasting
Description: as §1
The Rota-rod is a validated and sensitive tool that has been developed to document neurological deficits after pharmacological treatments. In this test, mice are placed on an accelerating Rota-rod whose revolutions per minute increase from 4 to 40 cycles per minute in about 4 minutes. The time it takes for the mice to fall off the rod is the end point of the test. Initially, the mice were given 3 practice runs on the rod to familiarize themselves with the test procedure. The time that mice remained on the rod was usually between five and ten minutes. A baseline measure was then made, the test drug given and the test procedure run every 20 minutes starting at time 0, immediately after drug administration. The mice were tested for 160 minutes after GHB administration although in some experiments recordings were made for as long as 280 minutes. Motor activity was expressed as a percentage of the baseline value. The time it took the mice to fall off the rod at a given time point after drug administration was divided by the time it took at baseline.
as §2

## O=C([O-])[C@@H](O)[C@@H](O)[C@H](O)[C@@H](O)CO.[Na+] [G, L-gulonic acid sodium salt]
CD-1 male mice [1]
  Effect on GHB sleep time: almost doubled the sleep time
[2]
  Effect on plasma half-life of GHB: can extend the plasma half-life of GHB
CD-1 male mice [3]; mouse, in vivo, po
  Effect on motor inhibition produced by GHB: significantly prolonged and deepened the motor inhibition produced by GHB
  Effect on motor performance on its own: had no effect on motor performance
  Percent of motor activity after GHB administration, 0′: 168 ± 5%
  Percent of motor activity after GHB administration, 20′: 50 ± 24%
  Percent of motor activity after GHB administration, 40′: 303 ± 12%
  Percent of motor activity after GHB administration, 60′: 183 ± 4%
  Percent of motor activity after GHB administration, 80′: 156 ± 2%
  Percent of motor activity after GHB administration, 100′: 66 ± 9%
  Percent of motor activity after GHB administration, 160′: 126 ± 3%
  Percent of motor activity after GHB administration, 220′: 303 ± 23%
  Percent of motor activity after GHB administration, 280′: 141 ± 5%

## O=C([O-])[C@H](O)[C@@H](O)[C@H](O)[C@H](O)CO.[Na+] [GA, D-gluconic acid sodium salt]
CD-1 male mice [1]; non-fasting mice
  Effect on GHB induced sleep time: did not show an increase in GHB induced sleep time

## O=C1O[C@H](CO)[C@@H](O)[C@H](O)[C@H]1O [GAL, D-gluconic acid lactone]
CD-1 male mice [1]
  Effect on GHB sleep time: appeared to increase the sleep time
CD-1 male mice [1]; non-fasting mice, n=6/group, GHB 800 mg/kg i.p. alone or immediately after 800 mg/kg i.p. of the named compound
  GHB induced sleep time: 155 ± 11 min
CD-1 male mice [3]
  Effect on GHB induced motor inhibition: most effectively potentiated GHB induced motor inhibition with significant effects at the 160 minute mark
CD-1 male mice [3]; Example 5: named compound 1200 mg/kg i.p. with GHB 1200 mg/kg orally
  Effect on motor depression by oral GHB: further significantly enhanced
CD-1 male mice [3]; Example 6: named agent 7.93 mmol/kg orally together with GHB 7.93 mmol/kg
  Effect on motor inhibition produced by GHB: neither oral gluconic acid lactone or gulonolactone augmented the depressant effects of GHB

## O=C[C@H](O)[C@@H](O)[C@H](O)[C@H](O)C(=O)[O-].[Na+] [GCA, D-glucuronic acid sodium salt]
CD-1 male mice [1]; non-fasting mice
  Effect on GHB induced sleep time: did not show an increase in GHB induced sleep time
[2]
  Effect on plasma half-life of GHB: decreased the plasma half-life of GHB
CD-1 male mice [3]
  Effect on GHB induced motor inhibition: potentiated and prolonged the motor inhibition produced by GHB
